Measured values from the NIST ThermoML archive (doi:10.1021/je0340755).

Legend:
[1] = 101.33 kPa, Liquid; for viscosity: Capillary tube (Ostwald / Ubbelohde) method
[2] = refractive index (Na D-line) (dimensionless); conditions: 298.15 K; 101.33 kPa; Liquid; Standard Abbe refractometry

CCC(O)CO (stereo not given) [1,2-butanediol]
[1]
Conditions	mass density [kg/m3]	viscosity [mPa·s]
298.15 K	998.86	57.46
308.15 K	991.42	30.18
318.15 K	983.93	17.41
328.15 K	976.09	10.9
338.15 K	968.11	7.257

[1], Linear variable-path acoustic interferometer
Conditions	speed of sound [m/s]
298.15 K	1452
308.15 K	1423.8
318.15 K	1396.2
328.15 K	1387
338.15 K	1366

Conditions	refractive index
[2]	1.4374

CC(O)C(C)O (stereo not given) [2,3-butanediol]
[1]
Conditions	mass density [kg/m3]	speed of sound [m/s]	viscosity [mPa·s]
298.15 K	998.57	1470.2	44.68
308.15 K	992.11	1440	22.95
318.15 K	984.13	1412.2	12.8
328.15 K	970.58	1392	7.722
338.15 K	961.97	1373.9	5.195

Conditions	refractive index
[2]	1.4366

OCCCCO [1,4-butanediol]
[1]
Conditions	mass density [kg/m3]	speed of sound [m/s]	viscosity [mPa·s]
298.15 K	1012.57	1605.1	72.62
308.15 K	1006.4	1588	44.87
318.15 K	1000.76	1570.8	29.07
328.15 K	–	1552.1	19.48
338.15 K	987.93	1529	13.49

Conditions	refractive index
[2]	1.4442

OCCCO [propan-1,3-diol]
[1]
Conditions	mass density [kg/m3]	viscosity [mPa·s]
298.15 K	1049.99	40.07
308.15 K	1043.71	27.25
318.15 K	1037.37	17.01
328.15 K	1030.96	11.28
338.15 K	1024.47	7.939

[1], Linear variable-path acoustic interferometer
Conditions	speed of sound [m/s]
298.15 K	1636.1
308.15 K	1616
318.15 K	1599.2
328.15 K	1575.9
338.15 K	1557

Conditions	refractive index
[2]	1.4386

CC(O)CCO (stereo not given) [1,3-butanediol]
[1]
Conditions	mass density [kg/m3]	speed of sound [m/s]	viscosity [mPa·s]
298.15 K	1000.03	1522.1	97.25
308.15 K	994.22	1492.1	52.5
318.15 K	988.7	1472	30.49
328.15 K	979.18	1453.9	18.91
338.15 K	971.91	1436.1	12.28

Conditions	refractive index
[2]	1.439

CC(O)CO (stereo not given) [1,2-propanediol]
[1]
Conditions	mass density [kg/m3]	viscosity [mPa·s]
298.15 K	1032.77	43.43
308.15 K	1025.4	24.25
318.15 K	1017.32	–
328.15 K	1009.56	9.691
338.15 K	1001.81	7.044

[1], Linear variable-path acoustic interferometer
Conditions	speed of sound [m/s]
298.15 K	1500.1
308.15 K	1488.9
318.15 K	1438.1
328.15 K	1401
338.15 K	1382.8

Conditions	refractive index
[2]	1.4314

O [water]
[1]
Conditions	viscosity [mPa·s]
298.15 K	0.89
308.15 K	0.719
318.15 K	0.596
328.15 K	0.503
338.15 K	0.438

[1], Linear variable-path acoustic interferometer
Conditions	speed of sound [m/s]
298.15 K	1498
308.15 K	1519
318.15 K	1535.1
328.15 K	1545
338.15 K	1551

Conditions	refractive index
[2]	1.3323
